# According to patent US20190298717A1 (BOARD OF REGENTS, THE UNIVERSITY OF TEXAS SYSTEM, priority 2016, published 2019):
# Entries after “also recorded” stand apart in the source; their conditions may differ.
# What was measured:
# [1] = test system: GCLc, GCLm, HO-1, and NQO-1; details: SH-SY5Y, 24 h
# Procedure: (§1) GSH is regulated by the rate-limiting enzyme GCL consisted of GCLc and GCLm subunits. […] The inventors then used extracellular lactate dehydrogenase cytotoxicity assay to measure cell survival.
# Western Blot Analysis. Protein expression was determined by Western blot analysis. Equal amount of protein from each sample was run in Tris-glycine SDS PAGE gel, followed by transferring to PVDF membrane. After blocking the membrane with 5% milk for 1 hour at room temperature, the membrane was incubated further for 2 hours with antibodies specific for target proteins: Nrf2, pNrf2(S40) from Novus (Littleton, Colo.); Keap1, HO-1, NQO1, GCLc, GCLm and lamin B1 from Cell Signaling (Danvers, Mass.); GAPDH from Santa Cruz (Dallas, Tex.); β-Actin from Thermo Fisher (Waltham, Mass.). The membrane was subsequently incubated with species-specific HRP-conjugated secondary antibody followed by incubation with chemiluminescence substrate and imaging. The band intensity of each of the target proteins was quantified using ImageQuant software (GE Healthcare, Sweden). Western blot analysis on worm lystaes was done similarly. […] Equal amounts of protein were run on the gel and SKN-1 protein level was detected using anti-GFP antibody.
# [2] = test system: HEK293 cells overexpressing tau residues 244 to 372, with mutations of P301L and V337M
# Procedure: The inventors first measured the cell proliferation to evaluate the stress caused by expression of tau fibrils in aggregate-positive and negative cells (FIG. 6A). […] The inventors also measured the concentration of superoxide ions (O2-), a detrimental byproduct of oxidative phosphorylation, as an ROS representative. […] The inventors next measured expression of Nrf2 and HO-1 in the same cells (FIG. 6C). […] Aggregate-positive and -negative KD cells were treated with 200 μM H2O2 for 24 h. Cytotoxicity was measured as release of LDH.
# Cell Viability and Cytotoxicity Assay. Cell growth was analyzed using the MTT cell viability assay. Briefly, at the end of incubation/treatment, MTT reagent was diluted in culture medium and aliquoted into each well. After incubation for 2 hours, the medium was aspirated and DMSO was aliquoted into each well to disrupt the cells and dissolve the intracellular MTT dyes. Absorbance was read at 570 nm wavelength in a 96-well plate reader. Cell toxicity was detected using a LDH cell toxicity assay kit (Promega, Fitchburg Wis.). This is a coupled enzymatic assay that detects a visible color signal initially described by Nachlas et. al. The reagent contained excess concentrations of lactate and NAD+as substrates to drive the LDH reaction and produce NADH. In the presence of diaphorase, NADH drives the enzyme-catalyzed conversion of iodonitro-tetrazolium violet to a red formazan product. Briefly, DMEM medium was withdrawn from each well of the plate after treatment and briefly centrifuged to get rid of floating cells or cell debris. Then, the medium supernatant was mixed with equal volume of substrate/enzyme mixture included in the kit (lactate, NAD+, diaphorase and iodonitro-tetrazolium violet), followed by incubation at room temperature for 15 minutes before the addition of acetic acid to cease the reaction. The absorbance was read at 490 nm in a 96-well plate reader. […] Cell viability assay was performed using CellTiter-Glo assay.
# GSK3β and Tau = assay: p-GSK3β (S9) and p-Tau (S396) Western blot; details: 10 μM, 24 hours
# Procedure: Densitometry values were normalized against actin. […] The levels of p-Tau and total Tau were measured by Western blot analysis. […] Densitometry values were normalized to actin using Image J software. All of the western blot quantification values (shown in the right panel) are mean±SD from two technical replicates (n=2).
# A known GSK3β inhibitor LiCl (lithium chloride) (10 mM) was used as a positive control [9]. After the treatment, cells were lysed and equal amounts of total lysate were resolved on SDS-PAGE for western blot analysis using phospho-GSK3β (S9) (phosphorylation at this residue reduces the GSK3β kinase activity) and pTau antibodies [12,13]. […] The inventors analyzed the level of Tau phosphorylation at S396 (FIG. 18C).
# C. elegans = assay: Rotenone stress test in worms; type: in vivo
# From the text: The inventors again used rotenone to elicit PD-like changes.
# Rotenone stress test. […] After 3 days young adult worms were transferred to fresh NGM plates either preloaded with rotenone alone or rotenone plus any of the abovementioned compounds. Every worm was subjected to prodding test with a worm pick every day. A worm was scored as dead when not responding to three repeated proddings. Survival curve was plotted using Prism 7.
# [3] = test system: HeLa cells expressing EGFP-HD103Q; details: 48 hours
# From the text: The fraction of EGFP-positive cells expressing aggregates under different conditions were plotted as odds ratios taking Ctrl value as 1. Error bars show 95% confidence interval. […] Error bars show SD.
# SH-SY5Y cells = details: 72 hours
# Procedure: Mitochondrial mass was measured by staining the cells with Mito tracker deep red followed by flow cytometric analysis. […] DNA copy number of mitochondria was calculated by amplification of ND5 or m-RNR, as mitochondrial genes, relative to LPL as a nucleus specific DNA sequence. Relative expression values were normalized to untreated cells.
# Several parameters directly linked to intact mitochondria itself, namely mitochondrial mass, mtDNA copy number (as representatives of mitochondrial biogenesis), mitochondrial membrane potential (reporter of mitochondrial function) and ATP level as a signature of energetics (FIGS. 11A to 11E) were measured. […] Isoniazid (20 μM) and resveratrol (20 μM) were used as negative and positive controls respectively). Mitochondrial mass was also evaluated in parallel by measuring the relative amount of mitochondrial to nuclear DNA. Two different set of primers (ND5 and m-RNR) were used to amplify mt-DNA in qPCR reactions (FIG. 11B).
# The mitochondrial membrane potential was measured as an indicator of cellular energetics and ATP content.
# GSH and GSSG = details: SH-SY5Y, 10 μM, 24 h
# Procedure: as §1
# Measurement of GSH/GSSG. The intracellular GSH and GSSG content were determined using a GSH/GSSG-Glo Assay kit (Promega, Fitchburg Wis.) following the manufacturer's instructions. Briefly, after treatment, half of the cells were lysed using total lysis buffer and the other GSSG lysis buffer for 5 minutes. Luciferin generation reagents (luciferin-NT plus Glutathione-S-Transferase) were then added into each well, followed by incubation for 30 minutes. Finally, luciferin detection reagents including Ultra-Glo™ Luciferase were aliquoted into each well. After 10-minute incubation, luminescence was read in a 96-well plate reader. GSH level was calculated by subtracting GSSG level from the total, and GSH/GSSG ratio was calculated as ([Total]−[GSSG])/[GSSG].
# [4] = test system: neuropeptide Y, synaptotagmin; details: data not shown
# From the text: Neuronal plasticity, defined as the brain's ability to form new neural connections, allows the neurons to compensate for injury and disease and to adjust their activities in response to new situations or changes in their environment.
# Procedure for primary cortical neurons: For each group (control, 0.5 μM Hyd, 1 μM Hyd, 2 μM Hyd and 2 μM Dimebon) 10 images from three replicates were analyzed. Total numbers of spines, stubby, thin, and mushroom were counted by NeuronStudio software for each image. The mean value and standard deviation of numbers for each group were calculated. P value was calculated with non-parametric T-test. All values are mean±SD (*p<0.05, **p<0.01).
# Primary neuronal cells from cortex were visualized with td-Tomato (FIG. 21A). Cells were treated with 500 nM Aβ-42 oligomers or vehicle (Ctrl). Spine density and morphology were measured per 10 micron by confocal imaging. […] Mushroom and thins are indicated with an arrow. […] Dimebon, a known neuroprotective compound, was used as positive control in all experiments. Data were collected from three batches of cultures for all treatments and Ctrl. For spine quantification n=8-10 (for each treatment per one experiment) neurons were analyzed by Neuronstudio. Scale bar corresponds to 5 μm. Experiment was repeated three times. Values are shown as mean±SEM. (*p<0.05, **p<0.01, ***p<0.001, ****p<0.0001).
# Primary neuronal cells were isolated from the cortex of mice pups on day 0 (P0) and cultured in 24 well plates covered by poly-D-lysine coated coverslips with a density of 1.0×105 for 7 days. Cells were then transfected with tdTomato plasmid and incubated for 14 additional days (4). […] Dimebon (2 μM) was used as a positive control. After 24 hours of treatment, cells were fixed and scanned with a Zeiss microscope at 100× resolution for visualizing spines on the dendrites. The images were analyzed using Neuronstudio software (5). […] Structural formation and the maturation of spines were also analyzed.
smiles,measurement,setting,value
NNc1nncc2ccccc12 [Hydralazine],HO-1 upregulation,[1],30%
same,NQO-1 upregulation,[1],40%
same,"expression of GCLc, GCLm, HO-1, and NQO-1",[1]; Western blotting,significant increase in expression
same,spine density after Aβ-42 oligomers,"primary cortical neurons; 1 μM, 500 nM Aβ-42, 24 hours",restoration of spine density
same,numbers of spines in a 10 micron length of dendrite,"primary cortical neurons; 0.5, 1.0, 2.0 μM, 24 hours",significantly increased
same,stubby formation and mushroom spines,"primary cortical neurons; 0.5, 1.0, 2.0 μM, 24 hours",increased the stubby formation and numbers of matured spines
same,cell viability under rotenone,"[2]; 20 μM, 1 μM rotenone, 24 h",protects both aggregate-positive and negative cells
same,cell viability in Nrf2 KD cell line,[2]; Nrf2 knockdown tau cells,did not improve cell viability
same,cell growth of aggregate-positive cells,[2]; tau aggregate-positive HEK293,improved
same,"Tau phosphorylation at S396, compared to positive control LiCl",GSK3β and Tau,reduces the hyper-phosphorylation of Tau even more
same,protection against rotenone-induced death,"C. elegans; 100 μM pretreatment, rotenone 50 μM",protected from rotenone; also recorded: significantly protected
same,protection against rotenone in skn-1(zu135) mutant compared to N2,C. elegans; skn-1(zu135),sharply decreased
same,EGFP-HD103Q poly Q aggregates,[3],disappearance of higher order poly Q aggregates
same,mitochondrial mass,"SH-SY5Y cells; 0, 10, 20 μM",sharp increase in mitochondrial mass
same,increase in mt-DNA copy number,SH-SY5Y cells; 20 μM,more than 50%
same,"GSH/GSSG ratio, higher",GSH and GSSG,5%
same,intracellular GSH,GSH and GSSG,increased GSH
same,increase of expression of neuropeptide Y,[4],3 fold
same,increase of expression of synaptotagmin,[4],~2.5 fold
